Assay results as given in patent publication US20230106943A1, “ENGINEERED ANTIMICROBIAL PEPTIDES AND USAGE THEREOF” (Peptilogics, Inc., priority 2021, published 2023).
Read-outs that look alike come from different tables or passages of the source. No end group written: not given here.

Tests used:
[1] = Example 4 stability of concentrated solutions: Osmolality (method 69153); assay type: physicochemical
Experimental: (§1) The peptide formulation of SEQ ID NO: 1 dissolved in a saline solution with a pH of 5.0±0.1 was tested for stability under either −20° C. or 40° C. with 75% relative humidity (RH). […]

[2] = Example 7 stability of 1 mg/mL SEQ ID NO: 1 solutions at pH 4-7, HPLC % area over storage; assay type: physicochemical
Experimental: SEQ ID NO: 1 was dissolved in sterile water for injection resulting solutions at a concentration of 1 mg/mL and pH adjusting agents were added to achieve a pH value in the range of 4-7. The pH adjusting chosen were acetate and sodium hydroxide and citric acid (for pH 4). Each of the solutions were filtered through a 0.45 um filter and samples were stored in 1 mL aliquots at 40° C., room temperature (approximately 20° C.), refrigerated conditions (5° C.), and frozen at −20° C. Samples were withdrawn at regular intervals (t=0, and Days 2, 7, 14, and 28) and analyzed by HPLC to determine if chemical degradation of the peptide could be detected in any samples. Degradation rates between samples of each pH were also analyzed.

[3] = Example 6 solubility near saturation of SEQ ID NO: 1 in water at pH 5.0, 7.4, 8.1 (HPLC); assay type: physicochemical; settings: for Purity of near saturation solution: water
Experimental: SEQ ID NO: 1 was dissolved to near saturation of different pH values.
396.69 mg of SEQ ID NO:1 was weighed out and dissolved in approximately 3 mL of HPLC-grade water resulting in a clear and colorless solution. The pH was 4.80 and the concentration approximately 132 mg/mL. The pH was adjusted with 0.08 M NaOH to pH=4.99. 1.1 mL was pulled, transferred to a serum vial, frozen and lyophilized. The remaining solution was adjusted to pH=7.40 with 0.08 M and 1 M NaOH. 1.45 mL was pulled, transferred to a serum vial, frozen and lyophilized. The remaining solution was adjusted to pH=8.00 with 0.08 M NaOH. This remaining solution (˜1.9 mL) was transferred to a serum vial, frozen and lyophilized. After lyophilization 200 μL HPLC-grade water was added to the solids in the serum vials and a colorless slurry was obtained. An additional 200 μL HPLC-grade water was added to obtain clear and colorless solutions. At pH=5.0 the solids went into solution without foaming; solids at pH=7.4 and pH=8 took longer to dissolve. These solutions (0.4 mL) were transferred to conical Eppendorf tubes. The vials were washed with 0.2 mL of HPLC grade water and the washes were combined with the respective solutions at the three different pH conditions. The samples were frozen and lyophilized. To the lyo cakes 50 μL increments of HPLC grade water was added. Transition from suspension or slurry to viscous solution was hard to capture. After adding 150 μL to 350 μL of HPLC grade water and intermittent mixing and storage at ambient temperature viscous and clear solutions were obtained which turned to gels when stored refrigerated at 2-8° C. All viscous solutions were centrifuged for 10 min at 12 krpm. No visible pellets were detected after centrifugation. Supernatants of the samples were analyzed for peptide concentration and purity by HPLC analysis.

[4] = not given; remark: listed apart in the source
[5] = Example 4 stability of concentrated solutions: pH (method 05627); assay type: physicochemical
Experimental: as §1

[6] = 15.3 mg/mL solution, 40° C. and 75% RH, 1 Month
[7] = 15.3 mg/mL solution, 40° C. and 75% RH, 2 Month
[8] = 15.3 mg/mL solution, 40° C. and 75% RH, 3 Month
[9] = 15.3 mg/mL solution, 40° C. and 75% RH, 6 Month
[10] = 15.3 mg/mL solution, −20° C., 0 Month
[11] = 15.3 mg/mL solution, −20° C., 1 Month
[12] = 15.3 mg/mL solution, −20° C., 2 Month
[13] = 15.3 mg/mL solution, −20° C., 3 Month
[14] = 15.3 mg/mL solution, −20° C., 6 Month
[15] = 36.7 mg/mL solution, 40° C. and 75% RH, 1 Month
[16] = 36.7 mg/mL solution, 40° C. and 75% RH, 2 Month
[17] = 36.7 mg/mL solution, 40° C. and 75% RH, 3 Month
[18] = 36.7 mg/mL solution, 40° C. and 75% RH, 6 Month
[19] = 36.7 mg/mL solution, −20° C., 0 Month
[20] = 36.7 mg/mL solution, −20° C., 1 Month
[21] = 36.7 mg/mL solution, −20° C., 2 Month
[22] = 36.7 mg/mL solution, −20° C., 3 Month
[23] = 36.7 mg/mL solution, −20° C., 6 Month
[24] = 72.4 mg/mL solution, 40° C. and 75% RH, 1 Month
[25] = 72.4 mg/mL solution, 40° C. and 75% RH, 2 Month
[26] = 72.4 mg/mL solution, 40° C. and 75% RH, 3 Month
[27] = 72.4 mg/mL solution, 40° C. and 75% RH, 6 Month
[28] = 72.4 mg/mL solution, −20° C., 0 Month
[29] = 72.4 mg/mL solution, −20° C., 1 Month
[30] = 72.4 mg/mL solution, −20° C., 2 Month
[31] = 72.4 mg/mL solution, −20° C., 3 Month
[32] = 72.4 mg/mL solution, −20° C., 6 Month
[33] = 81.4 mg/mL solution, 40° C. and 75% RH, 1 Month
[34] = 81.4 mg/mL solution, 40° C. and 75% RH, 2 Month
[35] = 81.4 mg/mL solution, 40° C. and 75% RH, 3 Month
[36] = 81.4 mg/mL solution, −20° C., 0 Month
[37] = 81.4 mg/mL solution, −20° C., 1 Month
[38] = 81.4 mg/mL solution, −20° C., 2 Month
[39] = 81.4 mg/mL solution, −20° C., 3 Month

Question: What does the source list for “RRWVRRVRRVWRRVVRVVRRWVRR-NH2 [SEQ ID NO: 1]”?
Answer: Osmolality [1, 6]: Average Reading: 82 mOsmol/kg; Osmolality [1, 7]: Average Reading: 83 mOsmol/kg; Osmolality [1, 8]: Average Reading: 80 mOsmol/kg; Osmolality [1, 9]: 85 mOsmol/kg; Osmolality [1, 10]: Average Reading: 82 mOsmol/kg; Osmolality [1, 11]: Average Reading: 82 mOsmol/kg; Osmolality [1, 12]: Average Reading: 82 mOsmol/kg; Osmolality [1, 13]: Average Reading: 82 mOsmol/kg; Osmolality [1, 14]: 84 mOsmol/kg; Osmolality ([1]; 15.3 mg/mL solution, −20° C., 9 Month): 83 mOsmol/kg; Osmolality Average Reading [1, 15]: Average Reading: 188 mOsmol/kg; Osmolality Average Reading [1, 16]: Average Reading: 189 mOsmol/kg; Osmolality Average Reading [1, 17]: Average Reading: 191 mOsmol/kg; Osmolality [1, 18]: 193 mOsmol/kg; Osmolality [1, 19]: Average Reading: 190 mOsmol/kg; Osmolality [1, 20]: Average Reading: 188 mOsmol/kg; Osmolality [1, 21]: Average Reading: 190 mOsmol/kg; Osmolality [1, 22]: Average Reading: 193 mOsmol/kg; Osmolality [1, 23]: 190 mOsmol/kg; Osmolality ([1]; 36.7 mg/mL solution, −20° C., 9 Month): 190 mOsmol/kg; Osmolality Average Reading [1, 24]: Average Reading: 374 mOsmol/kg; Osmolality Average Reading [1, 25]: Average Reading: 379 mOsmol/kg; Osmolality Average Reading [1, 26]: Average Reading: 371 mOsmol/kg; Osmolality [1, 27]: 194 mOsmol/kg; Osmolality Average Reading [1, 28]: Average Reading: 371 mOsmol/kg; Osmolality Average Reading [1, 29]: Average Reading: 374 mOsmol/kg; Osmolality Average Reading [1, 30]: Average Reading: 376 mOsmol/kg; Osmolality Average Reading [1, 31]: Average Reading: 374 mOsmol/kg; Osmolality [1, 32]: 195 mOsmol/kg; Osmolality ([1]; 72.4 mg/mL solution, −20° C., 9 Month): 375 mOsmol/kg; Osmolality [1, 33]: 489 mOsm/kg; Osmolality [1, 34]: 491 mOsm/kg; Osmolality [1, 35]: 492 mOsm/kg; Osmolality [1, 36]: 485 mOsm/kg; Osmolality [1, 37]: 489 mOsm/kg; Osmolality [1, 38]: 488 mOsm/kg; Osmolality [1, 39]: 486 mOsm/kg; pKa: ~12.5; impurity change by HPLC % area ([2]; pH 4-7 samples, after 7 days of storage at 40° C.): no significant evidence of impurity increase; overall stability as a function of pH ([2]; pH 4 and pH 5 made with acetic acid): maximum stability; impurity change by HPLC % area ([2]; prepared at pH 4 with citrate, after 27 days of storage at 40° C.): increase in impurities; impurity change by HPLC % area ([2]; prepared at pH 7, after 27 days of storage at 40° C.): increase in impurities; solubility ([3]; pH 5, water, pH 5.0, read-out: Solubility of near saturation, Concentration): ≥ 328 mg/mL; solubility ([3]; pH 7.4, water, pH 7.4, read-out: Solubility of near saturation, Concentration): ≥ 228 mg/mL; solubility ([3]; pH 8.1, water, pH 8.1, read-out: Solubility of near saturation, Concentration): ≥ 250 mg/mL; solubility ([3]; pH=5.0, read-out: solubility near saturation concentration in water): 328 mg/mL; solubility ([3]; pH=7.4, read-out: solubility near saturation concentration in water): 228 mg/mL; solubility ([3]; pH=8.1, read-out: solubility near saturation concentration in water): 250 mg/mL; Purity of near saturation solution ([3]; pH 5.0): 95.6%; Purity of near saturation solution ([3]; pH 7.4): 97.2%; Purity of near saturation solution ([3]; pH 8.1): 96.7%; solubility [4]: > 100 mg/mL; pH [5, 6]: Average Reading: 4.9; pH [5, 7]: Average Reading: 5.0; pH [5, 8]: Average Reading: 5.0; pH [5, 9]: 5.0; pH [5, 10]: Average Reading: 4.9; pH [5, 11]: Average Reading: 5.0; pH [5, 12]: Average Reading: 4.9; pH [5, 13]: Average Reading: 5.0; pH [5, 14]: 5.0; pH Average Reading [5, 15]: Average Reading: 4.8; pH Average Reading [5, 16]: Average Reading: 4.9; pH Average Reading [5, 17]: Average Reading: 5.0; pH [5, 18]: 4.8; pH [5, 19]: Average Reading: 4.9; pH [5, 20]: Average Reading: 4.8; pH [5, 21]: Average Reading: 4.9; pH [5, 22]: Average Reading: 5.0; pH [5, 23]: 4.9; pH Average Reading [5, 24]: Average Reading: 4.7; pH Average Reading [5, 25]: Average Reading: 4.9; pH Average Reading [5, 26]: Average Reading: 5.0; pH [5, 27]: 4.8; pH Average Reading [5, 28]: Average Reading: 4.9; pH Average Reading [5, 29]: Average Reading: 4.7; pH Average Reading [5, 30]: Average Reading: 4.8; pH Average Reading [5, 31]: Average Reading: 5.0; pH [5, 32]: 4.8; pH [5, 33]: 4.9; pH [5, 34]: 4.9; pH [5, 35]: 4.9; pH [5, 36]: 4.6; pH [5, 37]: 4.8; pH [5, 38]: 4.9; pH [5, 39]: 4.6
